In patent publication US20240101576A1, “HETEROCYCLIC INHIBITORS OF EGFR AND/OR HER2, FOR USE IN THE TREATMENT OF CANCER” (Scorpion Therapeutics, Inc., priority 2020, published 2024):

How the values were obtained:
Type in all cases: cell-based
[1] = molecular target: T1, EGFR exon 20 NPG Ins D770_N771 (Ba/F3 cells) (Homo sapiens, UniProt P00533, INS770NPG); experiment: Inhibitor activity on EGFR phosphorylation (pEGFR AlphaLISA, 2 h), Ba/F3 EGFR exon 20 NPG Ins
T1 construct: expressed in transfected cells; host or cells: Ba/F3 (murine pro-B cells), retroviral transduction, puromycin selection, IL3-independent pool
From the text: Example B. Inhibitor Activity on EGFR phosphorylation (pEGFR)
EGFR mutant Ba/F3 cells were generated by transduction with retrovirus containing vectors expressing EGFR L858R, EGFR exon 19del, EGFR L858R/C797S, EGFR exon 20 NPG Ins D770_N771, EGFR exon 20 ASV Ins V769_D770, or EGFR exon 20 SVD Ins D770_N771 genes along with a puromycin selection marker. Transduced cells are selected with puromycin for 7 days and are then be transferred into culture media without Interleukin 3 (IL3). Surviving cells are confirmed to express EGFR by Western blot and maintained as a pool. CUTO14 cells were obtained from Dr. Robert C. Doebele at the University of Colorado. The IC50 date are included in Table 6 and Table 7.
1.1 Cells are harvested from flask into cell culture medium and the cell number counted.
1.2 Cells are diluted with culture medium to the desired density and 40 μL of cell suspension is added into each well of 384-well cell culture plate and the seeding density is 50K cells/well (Ba/F3) or 12.5K cells/well (CUTO14).
2 Compound Preparation and Treatment
2.1 Test compounds are dissolved to 10 mM in a DMSO stock solution. 45 μL of stock solution is transferred to a 384 polypropylene plate (pp-plate). Perform 3-fold, 10-point dilution via transferring 15 μL compound into 30 μL DMSO using a TECAN (EVO200) liquid handler.
2.2 Spin plates at room temperature at 1,000 RPM for 1 minute.
2.3 Transfer 5 nL of diluted compound from compound source plate into the cell plate.
2.4 After compound treatment for 2 hours, perform pEGFR detection by AlphaLISA for compound treatment plates as described in “Detection” section.
3 Detection by pEGFR AlphaLISA (Perkin-Elmer)
3.1 Plates are removed from incubators and equilibrated at room temperature for 10 minutes, and media was removed
3.2 10 μL of lysis buffer is added and plates shaken at 600 rpm for 1 hr.
3.3 Prepare acceptor mix just before use and dispense 5 μL of acceptor mix to all the wells. Shake 350 rpm for Ihr in the dark
3.4 Prepare donor mix under low light conditions prior to use. Dispense 5 μL of donor mix to all the wells. Mix well on the shaker, seal and wrap in aluminum foil and incubate 1.5 hrs at room temperature in the dark
3.5 Transfer 18.5 μL mixture to OptiPlate 384, and read using an Envision. The IC50 date were included in Table 6 and Table 7.

[2] = molecular target: T2, EGFR exon 20 ASV Ins V769_D770 (Ba/F3 cells) (Homo sapiens, UniProt P00533, INS769ASV); experiment: Inhibitor activity on EGFR-dependent cell growth (CellTiter-Glo, 72 h), Ba/F3 EGFR exon 20 ASV Ins; conditions: read-out: BaF3 ASV IC50
T2 construct: expressed in transfected cells; host or cells: Ba/F3 (murine pro-B cells), retroviral transduction, puromycin selection, IL3-independent pool
Procedure, shortened: (§1)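 IC50s derive from a sigmoidal dose–response fit of CellTiter-Glo signal. The signal was normalised between […]-treated cells and cell-free medium. Ba/F3 mutant-EGFR cells, seeded at 400–800/well depending on the line, had 72 h of exposure to a 10-point, 3-fold compound series.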

[3] = molecular target: T3, EGFR exon 20 FQEA Ins A763_V764 (Ba/F3 cells) (Homo sapiens, UniProt P00533, INS763FQEA); experiment: Inhibitor activity on EGFR-dependent cell growth (CellTiter-Glo, 72 h), Ba/F3 EGFR exon 20 FQEA Ins; conditions: read-out: BaF3 FQEA IC50
T3 construct: expressed in transfected cells; host or cells: Ba/F3 (murine pro-B cells), retroviral transduction, puromycin selection, IL3-independent pool
Procedure, shortened: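 Ba/F3 cells engineered with each EGFR variant were plated (400, 600 or 800 per well for L858R, L858R/C797S, and exon 19del/FQEA). They were exposed for 72 hours to compound serially diluted from a 10 mM DMSO stock. Remaining viable cells were quantified by CellTiter-Glo, and IC50 was curve-fitted.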

[4] = molecular target: T1, EGFR exon 20 NPG Ins D770_N771 (Ba/F3 cells); experiment: Inhibitor activity on EGFR-dependent cell growth (CellTiter-Glo, 72 h), Ba/F3 EGFR exon 20 NPG Ins; conditions: read-out: BaF3 NPG IC50
Procedure, shortened: as §1

[5] = molecular target: T4, EGFR WT (Ba/F3 cells) (Homo sapiens, UniProt P00533); experiment: Inhibitor activity on EGFR-dependent cell growth (CellTiter-Glo, 72 h), Ba/F3 EGFR WT; conditions: read-out: BaF3 WT IC50
T4 construct: expressed in transfected cells; host or cells: Ba/F3 (murine pro-B cells), retroviral transduction, puromycin selection, maintained with EGF
Procedure, shortened: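 This growth assay used Ba/F3 cells that depend on wild-type EGFR and are kept in EGF without IL3. Compounds were made up as 10 mM DMSO stocks and diluted 3-fold over 10 points. 120 nL went onto 600 cells/well. After 72 hours, 40 μL CellTiter-Glo was added and luminescence read on EnVision after 30 min.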

[6] = molecular target: T5, EGFR exon 20 SVD Ins D770_N771 (Ba/F3 cells) (Homo sapiens, UniProt P00533, INS770SVD); experiment: Inhibitor activity on EGFR-dependent cell growth (CellTiter-Glo, 72 h), Ba/F3 EGFR exon 20 SVD Ins; conditions: read-out: BaF3 SVD IC50
T5 construct: expressed in transfected cells; host or cells: Ba/F3 (murine pro-B cells), retroviral transduction, puromycin selection, IL3-independent pool
Procedure, shortened: as §1

[7] = molecular target: T2, EGFR exon 20 ASV Ins V769_D770 (Ba/F3 cells); experiment: Inhibitor activity on EGFR phosphorylation (pEGFR AlphaLISA, 2 h), Ba/F3 EGFR exon 20 ASV Ins; conditions: EGFR phosphorylation, AlphaLISA, 2 hours; read-out: ASV IC50 (pEGFR)
Procedure, shortened: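 IL3-independent Ba/F3 cells transduced with mutant EGFR (50K/well) or CUTO14 cells (12.5K/well) were treated 2 h with 10-point, 3-fold compound dilutions. Phospho-EGFR in lysates was measured by AlphaLISA to derive IC50.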

T2 sequence (P00533 with tags, fused parts or gaps INS769ASV): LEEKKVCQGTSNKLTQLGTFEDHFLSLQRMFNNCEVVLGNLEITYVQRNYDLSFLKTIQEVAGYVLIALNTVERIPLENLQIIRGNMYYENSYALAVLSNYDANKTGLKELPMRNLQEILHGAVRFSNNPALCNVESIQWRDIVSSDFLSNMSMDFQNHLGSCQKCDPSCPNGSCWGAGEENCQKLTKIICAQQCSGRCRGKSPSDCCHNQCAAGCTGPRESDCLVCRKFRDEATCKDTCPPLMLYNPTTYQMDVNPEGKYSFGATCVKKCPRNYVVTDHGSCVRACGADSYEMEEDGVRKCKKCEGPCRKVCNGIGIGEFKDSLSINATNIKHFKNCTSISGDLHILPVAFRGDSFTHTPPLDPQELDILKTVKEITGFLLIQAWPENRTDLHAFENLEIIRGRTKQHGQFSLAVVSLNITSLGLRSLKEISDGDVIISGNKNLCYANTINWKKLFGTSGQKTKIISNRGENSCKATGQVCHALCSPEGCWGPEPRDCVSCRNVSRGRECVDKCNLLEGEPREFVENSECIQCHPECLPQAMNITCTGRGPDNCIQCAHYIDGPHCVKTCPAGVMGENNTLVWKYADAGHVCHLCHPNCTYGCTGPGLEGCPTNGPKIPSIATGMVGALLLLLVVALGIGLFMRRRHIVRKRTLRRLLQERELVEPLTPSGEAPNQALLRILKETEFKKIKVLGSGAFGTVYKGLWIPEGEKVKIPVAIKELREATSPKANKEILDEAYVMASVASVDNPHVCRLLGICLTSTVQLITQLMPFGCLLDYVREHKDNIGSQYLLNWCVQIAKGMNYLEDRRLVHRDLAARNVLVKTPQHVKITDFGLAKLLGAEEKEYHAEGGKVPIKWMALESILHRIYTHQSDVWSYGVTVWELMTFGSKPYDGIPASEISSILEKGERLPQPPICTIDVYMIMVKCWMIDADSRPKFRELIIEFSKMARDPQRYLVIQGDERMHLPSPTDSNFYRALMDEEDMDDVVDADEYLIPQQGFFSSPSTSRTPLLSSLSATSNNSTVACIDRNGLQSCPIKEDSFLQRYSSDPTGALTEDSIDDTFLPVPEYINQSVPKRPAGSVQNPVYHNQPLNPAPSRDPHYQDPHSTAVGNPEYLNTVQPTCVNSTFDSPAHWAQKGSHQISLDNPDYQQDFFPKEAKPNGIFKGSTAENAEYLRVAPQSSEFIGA
T4 sequence (P00533 25-1210): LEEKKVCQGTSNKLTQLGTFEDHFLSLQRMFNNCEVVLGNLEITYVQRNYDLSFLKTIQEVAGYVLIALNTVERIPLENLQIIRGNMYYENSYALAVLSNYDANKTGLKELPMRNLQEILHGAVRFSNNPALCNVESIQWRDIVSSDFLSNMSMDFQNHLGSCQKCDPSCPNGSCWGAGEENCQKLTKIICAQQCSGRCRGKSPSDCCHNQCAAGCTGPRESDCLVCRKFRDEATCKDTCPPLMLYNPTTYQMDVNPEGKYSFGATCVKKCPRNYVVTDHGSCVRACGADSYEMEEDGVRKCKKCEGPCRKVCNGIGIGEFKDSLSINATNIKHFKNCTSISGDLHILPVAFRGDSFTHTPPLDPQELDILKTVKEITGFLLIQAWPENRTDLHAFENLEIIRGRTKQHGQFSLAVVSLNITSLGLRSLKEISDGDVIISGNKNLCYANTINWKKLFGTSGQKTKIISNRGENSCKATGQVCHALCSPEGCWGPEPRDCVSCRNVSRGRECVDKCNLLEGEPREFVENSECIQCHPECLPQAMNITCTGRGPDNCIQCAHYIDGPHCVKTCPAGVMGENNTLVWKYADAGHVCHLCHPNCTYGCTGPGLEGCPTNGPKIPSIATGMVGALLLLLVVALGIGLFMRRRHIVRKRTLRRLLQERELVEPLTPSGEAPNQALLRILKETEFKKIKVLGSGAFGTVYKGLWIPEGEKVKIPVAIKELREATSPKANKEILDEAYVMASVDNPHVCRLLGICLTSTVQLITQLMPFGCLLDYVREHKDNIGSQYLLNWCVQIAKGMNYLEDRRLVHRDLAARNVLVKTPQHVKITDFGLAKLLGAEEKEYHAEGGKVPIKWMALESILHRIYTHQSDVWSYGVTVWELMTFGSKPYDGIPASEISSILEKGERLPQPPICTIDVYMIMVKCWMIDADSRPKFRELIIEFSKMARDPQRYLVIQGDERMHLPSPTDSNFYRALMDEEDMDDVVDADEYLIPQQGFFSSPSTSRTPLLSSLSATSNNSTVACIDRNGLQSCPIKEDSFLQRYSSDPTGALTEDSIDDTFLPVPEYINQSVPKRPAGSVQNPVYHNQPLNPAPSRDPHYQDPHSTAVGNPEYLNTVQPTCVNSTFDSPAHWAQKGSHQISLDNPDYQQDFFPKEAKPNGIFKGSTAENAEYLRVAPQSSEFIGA
T3 sequence (P00533 with tags, fused parts or gaps INS763FQEA): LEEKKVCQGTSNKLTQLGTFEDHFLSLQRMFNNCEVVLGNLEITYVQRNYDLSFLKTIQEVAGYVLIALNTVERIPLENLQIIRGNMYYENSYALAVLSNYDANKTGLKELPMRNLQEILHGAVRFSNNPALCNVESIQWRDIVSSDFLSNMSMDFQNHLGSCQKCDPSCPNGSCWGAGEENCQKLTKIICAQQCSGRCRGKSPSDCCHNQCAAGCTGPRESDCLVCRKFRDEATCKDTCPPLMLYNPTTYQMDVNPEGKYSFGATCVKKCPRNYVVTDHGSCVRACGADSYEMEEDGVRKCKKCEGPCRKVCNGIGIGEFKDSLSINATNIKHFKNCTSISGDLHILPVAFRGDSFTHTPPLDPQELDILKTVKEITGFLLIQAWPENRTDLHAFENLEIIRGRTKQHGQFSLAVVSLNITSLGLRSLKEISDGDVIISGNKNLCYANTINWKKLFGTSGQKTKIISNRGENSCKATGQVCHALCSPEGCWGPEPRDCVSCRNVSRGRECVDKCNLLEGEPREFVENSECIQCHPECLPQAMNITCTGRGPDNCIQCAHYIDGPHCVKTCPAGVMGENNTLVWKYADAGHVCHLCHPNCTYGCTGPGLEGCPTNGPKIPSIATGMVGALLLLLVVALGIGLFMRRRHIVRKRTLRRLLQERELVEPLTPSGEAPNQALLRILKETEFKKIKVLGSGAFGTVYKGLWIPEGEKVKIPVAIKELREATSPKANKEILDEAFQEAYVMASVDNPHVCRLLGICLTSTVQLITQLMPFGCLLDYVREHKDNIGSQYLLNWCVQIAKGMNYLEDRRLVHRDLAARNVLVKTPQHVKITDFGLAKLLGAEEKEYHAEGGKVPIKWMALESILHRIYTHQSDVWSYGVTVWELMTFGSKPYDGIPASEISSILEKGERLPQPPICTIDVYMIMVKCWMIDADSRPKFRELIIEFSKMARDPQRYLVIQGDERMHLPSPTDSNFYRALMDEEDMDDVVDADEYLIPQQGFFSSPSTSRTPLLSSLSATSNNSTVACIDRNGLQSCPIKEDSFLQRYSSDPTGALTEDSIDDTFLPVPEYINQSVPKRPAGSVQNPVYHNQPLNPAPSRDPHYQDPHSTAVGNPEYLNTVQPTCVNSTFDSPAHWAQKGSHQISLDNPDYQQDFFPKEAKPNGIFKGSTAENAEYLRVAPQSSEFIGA
T5 sequence (P00533 with tags, fused parts or gaps INS770SVD): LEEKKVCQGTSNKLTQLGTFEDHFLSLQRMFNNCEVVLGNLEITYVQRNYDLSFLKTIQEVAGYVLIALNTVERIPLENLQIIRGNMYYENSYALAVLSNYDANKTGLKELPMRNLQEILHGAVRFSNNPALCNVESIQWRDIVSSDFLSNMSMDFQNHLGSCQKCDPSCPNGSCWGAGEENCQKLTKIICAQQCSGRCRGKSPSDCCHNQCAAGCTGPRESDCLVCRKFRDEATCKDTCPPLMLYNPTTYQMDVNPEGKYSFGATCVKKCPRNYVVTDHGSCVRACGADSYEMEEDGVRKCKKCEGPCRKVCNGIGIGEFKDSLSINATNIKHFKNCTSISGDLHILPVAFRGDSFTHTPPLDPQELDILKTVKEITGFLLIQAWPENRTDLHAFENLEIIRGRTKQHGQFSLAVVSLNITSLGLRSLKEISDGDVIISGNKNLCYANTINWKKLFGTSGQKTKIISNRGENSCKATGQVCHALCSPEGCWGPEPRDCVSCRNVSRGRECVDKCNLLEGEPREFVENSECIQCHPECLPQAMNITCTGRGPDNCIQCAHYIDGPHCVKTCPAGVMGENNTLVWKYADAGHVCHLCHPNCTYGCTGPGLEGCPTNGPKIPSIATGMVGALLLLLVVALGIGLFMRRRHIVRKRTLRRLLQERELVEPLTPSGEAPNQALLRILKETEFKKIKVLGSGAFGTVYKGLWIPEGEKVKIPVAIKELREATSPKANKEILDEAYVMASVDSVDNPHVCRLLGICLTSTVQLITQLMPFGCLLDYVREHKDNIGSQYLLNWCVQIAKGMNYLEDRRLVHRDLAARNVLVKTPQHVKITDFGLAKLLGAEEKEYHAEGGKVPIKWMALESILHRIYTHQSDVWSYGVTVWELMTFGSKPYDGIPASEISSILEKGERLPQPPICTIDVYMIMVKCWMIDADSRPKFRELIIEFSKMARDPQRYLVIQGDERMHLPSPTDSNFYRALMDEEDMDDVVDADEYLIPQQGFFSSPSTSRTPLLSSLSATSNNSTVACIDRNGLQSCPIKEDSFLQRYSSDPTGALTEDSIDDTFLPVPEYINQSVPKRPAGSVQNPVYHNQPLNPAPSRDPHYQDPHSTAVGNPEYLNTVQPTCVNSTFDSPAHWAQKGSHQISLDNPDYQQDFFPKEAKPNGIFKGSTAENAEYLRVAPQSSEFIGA

Structure (SMILES)	IC50 [1] [nM]	IC50 [2] [nM]	IC50 [3] [nM]	IC50 [4] [nM]	IC50 [5] [nM]	IC50 [6] [nM]	IC50 [7] [nM]
COCCNc1ccc2nccc(-c3[nH]c4c(c3Nc3cccc(Cl)c3OC)C(=O)NCC4)c2n1 [Compound 680, 3-[(3-chloro-2-methoxyphenyl)amino]-2-[6-[(2-methoxyethyl)amino]-1,5-naphthyridin-4-yl]-1H,5H,6H,7H-pyrrolo[3,2-c]pyridin-4-one; formic acid]	< 100	< 100	< 100	< 100	< 100	< 100	< 100
CNc1nccc(-c2[nH]c3c(c2Nc2cccc(F)c2OC)C(=O)NCC3)n1 [Compound 691, 3-[(3-fluoro-2-methoxyphenyl)amino]-2-[2-(methylamino)pyrimidin-4-yl]-1H,5H,6H,7H-pyrrolo[3,2-c]pyridin-4-one]	< 100	100 to 1000	100 to 1000	100 to 1000	100 to 1000	100 to 1000	< 100
CCc1c(F)cccc1Nc1c(-c2ccnc(N)n2)[nH]c2c1C(=O)NCC2 [compound 195]	< 100	100 to 1000	100 to 1000	100 to 1000	100 to 1000	100 to 1000	< 100
COc1c(Cl)cccc1Nc1c(-c2ccnc3c2OCC(=O)N3)[nH]c2c1C(=O)NCC2 [compound 308]	< 100	100 to 1000	100 to 1000	100 to 1000	> 1000	100 to 1000	< 100
COc1c(Cl)cccc1Nc1c(-c2ccnc(N)c2)[nH]c2c1C(=O)NCC2 [compound 285]	< 100	100 to 1000	100 to 1000	100 to 1000	> 1000	100 to 1000	< 100
COc1c(Cl)cccc1Nc1c(-c2ccnc(C)n2)[nH]c2c1C(=O)NCC2 [compound 206]	< 100	–	–	100 to 1000	100 to 1000	–	100 to 1000
COc1c(Cl)cccc1Nc1c(-c2ccnc(NC(C)=O)n2)[nH]c2c1C(=O)NCC2 [compound 220]	< 100	100 to 1000	100 to 1000	100 to 1000	> 1000	100 to 1000	100 to 1000
COCCOc1ccc2nccc(-c3[nH]c4c(c3Nc3cccc(Cl)c3OC)C(=O)NCC4)c2n1 [compound 678, 3-[(3-chloro-2-methoxyphenyl)amino]-2-[6-(2-methoxyethoxy)-1,5-naphthyridin-4-yl]-1H,5H,6H,7H-pyrrolo[3,2-c]pyridin-4-one]	< 100	< 100	< 100	< 100	< 100	< 100	< 100
CNc1ccc2nccc(-c3[nH]c4c(c3Nc3cccc(Cl)c3OC)C(=O)NCC4)c2n1 [Compound 152, 3-((3-chloro-2-methoxyphenyl)amino)-2-(6-(methylamino)-1,5-naphthyridin-4-yl)-1,5,6,7-tetrahydro-4H-pyrrolo[3,2-c]pyridin-4-one]	< 100	–	–	< 100	< 100	–	< 100
COc1c(Cl)cccc1Nc1c(-c2ccnc(Nc3cnn(C)c3)n2)[nH]c2c1C(=O)NCC2 [compound 109]	< 100	< 100	< 100	< 100	< 100	< 100	< 100
Nc1nccc(-c2[nH]c3c(c2Nc2cccc(F)c2OC(F)F)C(=O)NCC3)n1 [compound 299]	< 100	100 to 1000	100 to 1000	100 to 1000	> 1000	100 to 1000	–
COc1c(F)cccc1Nc1c(-c2ncnc3cccnc23)[nH]c2c1C(=O)NCC2 [Compound 154, 3-((3-fluoro-2-methoxyphenyl)amino)-2-(pyrido[3,2-d]pyrimidin-4-yl)-1,5,6,7-tetrahydro-4H-pyrrolo[3,2-c]pyridin-4-one]	100 to 1000	–	–	> 1000	< 100	–	> 1000
COc1c(Cl)cccc1Nc1c(-c2ccnc3cnc(OCCN(C)C)nc23)[nH]c2c1C(=O)NCC2 [compound 502, 3-[(3-chloro-2-methoxyphenyl)amino]-2-{2-[2-(dimethylamino)ethoxy]pyrido[3,2-d]pyrimidin-8-yl}-1H,5H,6H,7H-pyrrolo[3,2-c]pyridin-4-one]	< 100	100 to 1000	100 to 1000	100 to 1000	> 1000	100 to 1000	–
Cc1c(F)cccc1Nc1c(-c2ccnc(N)n2)[nH]c2c1C(=O)NCC2 [compound 282]	< 100	–	–	100 to 1000	100 to 1000	–	< 100
COc1ccc2nccc(-c3[nH]c4c(c3Nc3cccc(F)c3OC)C(=O)NCC4)c2n1 [Compound 681, 3-[(3-fluoro-2-methoxyphenyl)amino]-2-(6-methoxy-1,5-naphthyridin-4-yl)-1H,5H,6H,7H-pyrrolo[3,2-c]pyridin-4-one]	< 100	< 100	< 100	< 100	< 100	< 100	–
COc1ccc2nccc(-c3[nH]c4c(c3Nc3cccc(F)c3OC)C(=O)NCC43CCNCC3)c2n1 [compound 685]	< 100	–	–	100 to 1000	100 to 1000	–	< 100
Nc1nccc(-c2[nH]c3c(c2Nc2ccccc2)C(=O)NCC3)n1 [compound 283]	< 100	–	< 100	100 to 1000	100 to 1000	–	100 to 1000
COc1c(Cl)cccc1Nc1c(-c2ccnc(Nc3cn(C)nn3)n2)[nH]c2c1C(=O)NCC2 [compound 511, 3-[(3-chloro-2-methoxyphenyl)amino]-2-{2-[(1-methyl-1,2,3-triazol-4-yl)amino]pyrimidin-4-yl}-1H,5H,6H,7H-pyrrolo[3,2-c]pyridin-4-one]	< 100	< 100	< 100	< 100	100 to 1000	< 100	–
CNc1nccc(-c2[nH]c3c(c2Nc2cccc(F)c2C)C(=O)NCC3)n1 [Compound 690, 3-[(3-fluoro-2-methylphenyl)amino]-2-[2-(methylamino)pyrimidin-4-yl]-1H,5H,6H,7H-pyrrolo[3,2-c]pyridin-4-one]	< 100	–	–	100 to 1000	< 100	–	< 100
